Source: the NIST ThermoML archive (doi:10.1016/j.jct.2007.07.005)

Assay: xn = mol fraction of the nth substance listed
Conditions: Fluid (supercritical or subcritical phases), vibrating tube

CCCCCO [pentan-1-ol] + O=C=O
Conditions | mass density [kg/m3]
362.59 K, 3010 kPa, x2 = 0 | 762.29
362.59 K, 3998 kPa, x2 = 0 | 763.28
362.59 K, 5006 kPa, x2 = 0 | 764.25
362.59 K, 6013 kPa, x2 = 0 | 765.23
362.59 K, 7014 kPa, x2 = 0 | 766.21
362.59 K, 8007 kPa, x2 = 0 | 767.16
362.59 K, 9020 kPa, x2 = 0 | 768.1
362.59 K, 10006 kPa, x2 = 0 | 769.02
362.59 K, 10991 kPa, x2 = 0 | 769.93
362.59 K, 12025 kPa, x2 = 0 | 770.87
362.59 K, 13008 kPa, x2 = 0 | 771.76
362.59 K, 13998 kPa, x2 = 0 | 772.62
362.59 K, 15017 kPa, x2 = 0 | 773.51
362.59 K, 16000 kPa, x2 = 0 | 774.37
362.59 K, 17013 kPa, x2 = 0 | 775.24
362.59 K, 18032 kPa, x2 = 0 | 776.11
362.59 K, 19003 kPa, x2 = 0 | 776.9
362.59 K, 20030 kPa, x2 = 0 | 777.77
362.59 K, 20987 kPa, x2 = 0 | 778.55
362.59 K, 22033 kPa, x2 = 0 | 779.4
362.59 K, 23000 kPa, x2 = 0 | 780.2
362.59 K, 24031 kPa, x2 = 0 | 781.02
362.59 K, 25026 kPa, x2 = 0 | 781.82
362.64 K, 10025 kPa, x2 = 0.3624 | 777.81
362.64 K, 11003 kPa, x2 = 0.3624 | 779.19
362.64 K, 12003 kPa, x2 = 0.3624 | 780.55
362.64 K, 12022 kPa, x2 = 0.4651 | 773.96
362.64 K, 13017 kPa, x2 = 0.3624 | 781.9
362.64 K, 13060 kPa, x2 = 0.4651 | 776.14
362.64 K, 14013 kPa, x2 = 0.3624 | 783.21
362.64 K, 14031 kPa, x2 = 0.4651 | 778.14
362.64 K, 15047 kPa, x2 = 0.4651 | 780.2
362.64 K, 15050 kPa, x2 = 0.3624 | 784.56
362.64 K, 16009 kPa, x2 = 0.3624 | 785.79
362.64 K, 16038 kPa, x2 = 0.4651 | 782.15
362.64 K, 17020 kPa, x2 = 0.4651 | 784.05
362.64 K, 17038 kPa, x2 = 0.3624 | 787.08
362.64 K, 17996 kPa, x2 = 0.3624 | 788.26
362.64 K, 18020 kPa, x2 = 0.4651 | 785.95
362.64 K, 19025 kPa, x2 = 0.3624 | 789.49
362.64 K, 19043 kPa, x2 = 0.4651 | 787.85
362.64 K, 20005 kPa, x2 = 0.3624 | 790.66
362.64 K, 20038 kPa, x2 = 0.4651 | 789.76
362.64 K, 21006 kPa, x2 = 0.3624 | 791.85
362.64 K, 21016 kPa, x2 = 0.4651 | 791.43
362.64 K, 22040 kPa, x2 = 0.3624 | 793.05
362.64 K, 22046 kPa, x2 = 0.4651 | 793.2
362.64 K, 22994 kPa, x2 = 0.3624 | 794.14
362.64 K, 23026 kPa, x2 = 0.4651 | 794.9
362.64 K, 24043 kPa, x2 = 0.3624 | 795.34
362.64 K, 24056 kPa, x2 = 0.4651 | 796.64
362.64 K, 25004 kPa, x2 = 0.3624 | 796.42
362.66 K, 3020 kPa, x2 = 0.0816 | 763.81
362.66 K, 3996 kPa, x2 = 0.0816 | 764.91
362.66 K, 4993 kPa, x2 = 0.0816 | 765.97
362.66 K, 6014 kPa, x2 = 0.0816 | 767.08
362.66 K, 7003 kPa, x2 = 0.0816 | 768.13
362.66 K, 8000 kPa, x2 = 0.0816 | 769.18
362.66 K, 9015 kPa, x2 = 0.0816 | 770.22
362.66 K, 10003 kPa, x2 = 0.0816 | 771.21
362.66 K, 11015 kPa, x2 = 0.0816 | 772.24
362.66 K, 12001 kPa, x2 = 0.0816 | 773.21
362.66 K, 13063 kPa, x2 = 0.0816 | 774.24
362.66 K, 14005 kPa, x2 = 0.0816 | 775.13
362.66 K, 15014 kPa, x2 = 0.0816 | 776.09
362.66 K, 16024 kPa, x2 = 0.9216 | 573.29
362.66 K, 16035 kPa, x2 = 0.0816 | 777.05
362.66 K, 17029 kPa, x2 = 0.0816 | 777.98
362.66 K, 17029 kPa, x2 = 0.9216 | 602.35
362.66 K, 18005 kPa, x2 = 0.0816 | 778.87
362.66 K, 18035 kPa, x2 = 0.9216 | 625.49
362.66 K, 19005 kPa, x2 = 0.9216 | 644.28
362.66 K, 19061 kPa, x2 = 0.0816 | 779.82
362.66 K, 19993 kPa, x2 = 0.0816 | 780.66
362.66 K, 20065 kPa, x2 = 0.9216 | 661.85
362.66 K, 21022 kPa, x2 = 0.0816 | 781.57
362.66 K, 21055 kPa, x2 = 0.9216 | 676.21
362.66 K, 22016 kPa, x2 = 0.9216 | 688.72
362.66 K, 22027 kPa, x2 = 0.0816 | 782.43
362.66 K, 23003 kPa, x2 = 0.0816 | 783.28
362.66 K, 23071 kPa, x2 = 0.9216 | 701.08
362.66 K, 23748 kPa, x2 = 0.9216 | 708.43
362.66 K, 23994 kPa, x2 = 0.0816 | 784.14
362.66 K, 25028 kPa, x2 = 0.0816 | 785.05
362.67 K, 16036 kPa, x2 = 0.7274 | 743.56
362.67 K, 17030 kPa, x2 = 0.7274 | 749.82
362.67 K, 18000 kPa, x2 = 0.7274 | 755.36
362.67 K, 19028 kPa, x2 = 0.7274 | 760.67
362.67 K, 20033 kPa, x2 = 0.7274 | 765.6
362.67 K, 21074 kPa, x2 = 0.7274 | 770.32
362.67 K, 22015 kPa, x2 = 0.7274 | 774.34
362.67 K, 23077 kPa, x2 = 0.7274 | 778.68
362.67 K, 24033 kPa, x2 = 0.7274 | 782.39
362.67 K, 25155 kPa, x2 = 0.7274 | 786.55
362.76 K, 15032 kPa, x2 = 0.6054 | 774.3
362.76 K, 16035 kPa, x2 = 0.6054 | 777.11
362.76 K, 17040 kPa, x2 = 0.6054 | 779.89
362.76 K, 18044 kPa, x2 = 0.6054 | 782.5
362.76 K, 19042 kPa, x2 = 0.6054 | 785.04
362.76 K, 20068 kPa, x2 = 0.6054 | 787.6
362.76 K, 21079 kPa, x2 = 0.6054 | 790.03
362.76 K, 22029 kPa, x2 = 0.6054 | 792.27
362.76 K, 23044 kPa, x2 = 0.6054 | 794.59
362.76 K, 24071 kPa, x2 = 0.6054 | 796.88
362.76 K, 25065 kPa, x2 = 0.6054 | 799.05
362.79 K, 7017 kPa, x2 = 0.1347 | 768.35
362.79 K, 7974 kPa, x2 = 0.1347 | 769.41
362.79 K, 9023 kPa, x2 = 0.1347 | 770.53
362.79 K, 9999 kPa, x2 = 0.1347 | 771.53
362.79 K, 10899 kPa, x2 = 0.1347 | 772.5
362.79 K, 12022 kPa, x2 = 0.1347 | 773.68
362.79 K, 13018 kPa, x2 = 0.1347 | 774.7
362.79 K, 14016 kPa, x2 = 0.1347 | 775.72
362.79 K, 15031 kPa, x2 = 0.1347 | 776.75
362.79 K, 16022 kPa, x2 = 0.1347 | 777.7
362.79 K, 17016 kPa, x2 = 0.1347 | 778.71
362.79 K, 18017 kPa, x2 = 0.1347 | 779.67
362.79 K, 19013 kPa, x2 = 0.1347 | 780.6
362.79 K, 20017 kPa, x2 = 0.1347 | 781.57
362.79 K, 21040 kPa, x2 = 0.1347 | 782.53
362.79 K, 22011 kPa, x2 = 0.1347 | 783.41
362.79 K, 23022 kPa, x2 = 0.1347 | 784.34
362.79 K, 24039 kPa, x2 = 0.1347 | 785.29
362.79 K, 25030 kPa, x2 = 0.1347 | 786.19
